Here are results for eleven compounds from ChEMBL document CHEMBL4017474, “A calcineurin antifungal strategy with analogs of FK506” (Bioorg Med Chem Lett, 2017).

The source made the active and inactive calls. The calls are words filed in the database; no cut-off is given here. Where only a bound is given, the exact number is not on record here.

Data set [1] deals with T1, Peptidyl-prolyl cis-trans isomerase FKBP1A (Homo sapiens, UniProt P62942). The data set is described as follows: Antagonist activity at human FKBP12 measured after 30 mins by fluorescein labelled SLF tracer based fluorescence polarization assay.
Data set [2] concerns HepG2. As to the kind of experiment: Cytotoxicity against human HepG2 cells. The data set is classed as cell-based.
In data set [3] the target is T1, Peptidyl-prolyl cis-trans isomerase FKBP1A. As to the kind of experiment: Antagonist activity at recombinant human N-terminal His6-tagged FKBP12 expressed in Escherichia coli assessed as inhibition of FK506 mediated FKBP12 binding to calcineurin using […] pretreated for 1 hr followed by substrate addition measured after 1 hr by biomol green dye based spectrophotometric method.

For data set [4], the system named is Jurkat. As to the kind of experiment: Immunosuppressive activity in PMA/ionomycin stimulated human Jurkat T cells assessed as suppression of IL2 production pretreated for 15 to 30 mins followed by PMA/ionomycin addition measured after 18 to 20 hrs by ELISA. The data set is classed as cell-based.
Data set [5] deals with T1, Peptidyl-prolyl cis-trans isomerase FKBP1A. As to the kind of experiment: Antagonist activity at recombinant human N-terminal His6-tagged FKBP12 expressed in Escherichia coli assessed as inhibition of FKBP12 binding to calcineurin at […] using […] pretreated for 1 hr followed by substrate addition measured after 1 hr by biomol green dye based spectrophotometric method.

Data set [6] has as its system Vero 76. The data set is described as follows: Cytotoxicity against African green monkey Vero 76 cells. The data set is classed as cell-based. Particulars: Chlorocebus sabaeus.
For data set [7], the system named is Aspergillus fumigatus. The data set is described as follows: Antifungal activity against Aspergillus fumigatus up to 25 ug/ml measured after 48 hrs by broth dilution method. The data set is classed as functional.
Data set [8] deals with Aspergillus fumigatus. The data set is described as follows: Antifungal activity against Aspergillus fumigatus assessed as spore germination at 12.5 ug/ml measured after 48 hrs in presence of FK506 by broth dilution method relative to control. The data set is classed as functional.
The subject of data set [9] is PBMC. The data set is described as follows: Reversal of FK506-induced inhibition of cell proliferation in concanavalin A stimulated human PBMC at 1 uM measured after 72 hrs by CellTiter-Glo assay relative to control. The data set is classed as functional. Details: scale not given: the % may be the effect or the level left.
For data set [10], the system named is PBMC. The data set is described as follows: Antiproliferative activity against concanavalin A stimulated human PBMC at 1 to 2 ug/ml measured after 72 hrs by CellTiter-Glo assay. The data set is classed as cell-based.
Data set [11] relates to PBMC. The data set is described as follows: Reversal of FK506-induced inhibition of cell proliferation in concanavalin A stimulated human PBMC at 0.1 uM measured after 72 hrs by CellTiter-Glo assay. The data set is classed as functional, cell-based.
The test system of data set [12] is Aspergillus fumigatus. As to the kind of experiment: Antifungal activity against Aspergillus fumigatus assessed as spore germination at 6.25 to 25 ug/ml measured after 48 hrs in presence of FK506 by broth dilution method. The data set is classed as functional.
The nature of data set [13]: AUClast in mouse at 3 mg/kg, iv. Particulars: in vivo. Details: dose 3 mg/kg, time 0 - last, route intravenous. The data set is classed as ADME, organism-based.
Data set [14] in a line: Terminal half-life in mouse at 3 mg/kg, iv. The data set is classed as ADME, organism-based. To be noted: in vivo, read-out: beta t1/2 (converted).
Data set [15] is described as follows: Volume of distribution at steady state in mouse at 3 mg/kg, iv. The data set is classed as ADME, organism-based. Particulars: in vivo, read-out: Vdss.
The nature of data set [16]: Clearance in mouse at 3 mg/kg, iv. The data set is classed as ADME, organism-based. To be noted: in vivo.
Data set [17] can be described thus: Antagonist activity at Aspergillus fumigatus FKBP12 measured after 30 mins by fluorescein labelled SLF tracer based fluorescence polarization assay.

T1 sequence (P62942 whole entry): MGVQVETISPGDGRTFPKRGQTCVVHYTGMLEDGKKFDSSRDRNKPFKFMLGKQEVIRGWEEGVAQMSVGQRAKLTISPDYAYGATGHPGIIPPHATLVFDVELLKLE

`CO[C@H]1C[C@@H](C)C/C(C)=C/[C@@H](CCCC(=O)N2CC(O)C2)C(=O)C[C@H](O)[C@@H](C)[C@@H](/C(C)=C/[C@@H]2CC[C@@H](O)[C@H](OC)C2)OC(=O)[C@@H]2CCCCN2C(=O)C(=O)[C@]2(O)O[C@H]1[C@@H](OC)C[C@H]2C`: the IC50 in data set [1] is 12.5 nM; in data set [2] it was more than 100000 nM; in data set [3], 1110 nM; in data set [4], more than 10000 nM; in data set [6], more than 100000 nM. For the same compound, the inhibition entry in data set [5] was “inactive”. Further, the outcome in data set [7] was inactive. In addition, the Activity in [8] is recorded as 24%; in [9], 49.9%; in data set [10], “Non-Toxic”.
Consider `CO[C@H]1C[C@@H](C)C/C(C)=C/[C@@H](CCCC(=O)NCCc2ccccn2)C(=O)C[C@H](O)[C@@H](C)[C@@H](/C(C)=C/[C@@H]2CC[C@@H](O)[C@H](OC)C2)OC(=O)[C@@H]2CCCCN2C(=O)C(=O)[C@]2(O)O[C@H]1[C@@H](OC)C[C@H]2C`, for which the IC50 was 14.3 nM in data set [1]; more than 100000 nM in data set [2]; 850 nM in [3]; more than 10000 nM in [4]; more than 100000 nM in data set [6]. Further, the inhibition result in data set [5] is “inactive”. Also, the outcome in [7] was inactive. Further, the Activity is reported as 31% in data set [8], 36.6% in data set [9] and “Non-Toxic” in [10].
Take `CO[C@H]1C[C@@H](C)C/C(C)=C/[C@@H](CCN(C)C)C(=O)C[C@H](O)[C@@H](C)[C@@H](/C(C)=C/[C@@H]2CC[C@@H](O)[C@H](OC)C2)OC(=O)[C@@H]2CCCCN2C(=O)C(=O)[C@]2(O)O[C@H]1[C@@H](OC)C[C@H]2C`: the IC50 was 19.2 nM in [1], more than 100000 nM in [2], more than 10000 nM in data set [4] and more than 100000 nM in data set [6]. Moreover, the inhibition result in [5] was “inactive”. Besides, the result in data set [7] was inactive. For the same compound, the Activity in data set [8] is given as 54.3%; in data set [9], 105.6%; in data set [10] it was “Non-Toxic”.
With `CO[C@H]1C[C@@H](C)C/C(C)=C/[C@@H](/C=C/CCCC(=O)N2CCNCC2)C(=O)C[C@H](O)[C@@H](C)[C@@H](/C(C)=C/[C@@H]2CC[C@@H](O)[C@H](OC)C2)OC(=O)[C@@H]2CCCCN2C(=O)C(=O)[C@]2(O)O[C@H]1[C@@H](OC)C[C@H]2C`, the IC50 in [1] was 12.6 nM; in data set [2], more than 100000 nM; in [3], 1810 nM; in data set [4] it was more than 10000 nM; in data set [6], more than 100000 nM. Moreover, the inhibition result in data set [5] is “inactive”. The outcome in [7] was inactive. Besides, the Activity is listed as 36.5% in [8], 27.5% in data set [9] and “Non-Toxic” in data set [10].
For `CO[C@H]1C[C@@H](C)C/C(C)=C/[C@@H](CCCC(=O)N2CCN(C)CC2)C(=O)C[C@H](O)[C@@H](C)[C@@H](/C(C)=C/[C@@H]2CC[C@@H](OCCO)[C@H](OC)C2)OC(=O)[C@@H]2CCCCN2C(=O)C(=O)[C@]2(O)O[C@H]1[C@@H](OC)C[C@H]2C`, the IC50 was 19.1 nM in data set [1], more than 100000 nM in [2], more than 10000 nM in data set [4] and more than 100000 nM in [6]. Also, the inhibition entry in data set [5] was “inactive”. The outcome in data set [7] and in data set [11] was inactive. Moreover, the Activity in [8] is 24 - 42%; in [9], 67.8%; in [10] it was “Non-Toxic”. For the same compound, the result in [12] was Active.
Regarding `CO[C@H]1C[C@@H](C)C/C(C)=C/[C@@H](CCCC(=O)NCCN2CCOCC2)C(=O)C[C@H](O)[C@@H](C)[C@@H](/C(C)=C/[C@@H]2CC[C@@H](O)[C@H](OC)C2)OC(=O)[C@@H]2CCCCN2C(=O)C(=O)[C@]2(O)O[C@H]1[C@@H](OC)C[C@H]2C`, the IC50 in data set [1] is 11.5 nM; in data set [2], more than 100000 nM; in [3], 824 nM; in [4], more than 10000 nM; in data set [6] it was more than 100000 nM. Besides, the inhibition entry in data set [5] was “inactive”. Besides, in [7], the outcome was inactive. For the same compound, the Activity was 39.7% in data set [8], 45.9% in data set [9] and “Non-Toxic” in data set [10].
Consider `CO[C@H]1C[C@@H](C)C/C(C)=C/[C@@H](CC(=O)N2CCCC2)C(=O)C[C@H](O)[C@@H](C)[C@@H](/C(C)=C/[C@@H]2CC[C@@H](O)[C@H](OC)C2)OC(=O)[C@@H]2CCCCN2C(=O)C(=O)[C@]2(O)O[C@H]1[C@@H](OC)C[C@H]2C`, for which the IC50 in [1] is 22.1 nM; in [2], more than 100000 nM; in [4] it was more than 10000 nM; in [6] it was more than 100000 nM. Moreover, the inhibition result in data set [5] was “inactive”. The outcome in data set [7] was inactive. Further, the Activity in data set [8] is 90.5%; in data set [10] it was “Non-Toxic”. The AUC(0-t) in [13] is 2140 ng·h/mL. In addition, in data set [14], the half-life is 42.8 min. Moreover, the Vd in data set [15] came out at 1.01 L/kg. In [16], this compound gave a clearance of 22.8 mL/min/kg.
Take `CO[C@H]1C[C@@H](C)C/C(C)=C/[C@@H](CCCC(=O)N(CCO)CCO)C(=O)C[C@H](O)[C@@H](C)[C@@H](/C(C)=C/[C@@H]2CC[C@@H](O)[C@H](OC)C2)OC(=O)[C@@H]2CCCCN2C(=O)C(=O)[C@]2(O)O[C@H]1[C@@H](OC)C[C@H]2C`: the IC50 in data set [1] was 13.4 nM; in data set [2], more than 100000 nM; in [3], 989 nM; in data set [4], more than 10000 nM; in data set [17], 22.5 nM; in data set [6] it was more than 100000 nM. Also, the inhibition result in data set [5] is “inactive”. The outcome in [7] was inactive. For the same compound, the Activity is 35.7% in data set [8], 36.2% in data set [9] and “Non-Toxic” in data set [10].
Regarding `CO[C@H]1C[C@@H](C)C/C(C)=C/[C@@H](CCCC(=O)N2CCN(Cc3ccccn3)CC2)C(=O)C[C@H](O)[C@@H](C)[C@@H](/C(C)=C/[C@@H]2CC[C@@H](O)[C@H](OC)C2)OC(=O)[C@@H]2CCCCN2C(=O)C(=O)[C@]2(O)O[C@H]1[C@@H](OC)C[C@H]2C`, the IC50 in [1] was 11.2 nM; in data set [2], more than 100000 nM; in data set [3], 1290 nM; in data set [4], more than 10000 nM; in data set [6], more than 100000 nM. Also, the inhibition entry in [5] is “inactive”. Further, the result in data set [7] was inactive. Moreover, the results for the Activity in data set [8], in data set [9] and in data set [10] were 47.4%, 88.3% and “Non-Toxic”, respectively.
Consider `CC[C@@H]1/C=C(\C)C[C@H](C)C[C@H](OC)[C@H]2O[C@@](O)(C(=O)C(=O)N3CCCC[C@H]3C(=O)O[C@H](/C(C)=C/[C@@H]3CC[C@@H](OC(=O)N4CCN(C)CC4)[C@H](OC)C3)[C@H](C)[C@@H](O)CC1=O)[C@H](C)C[C@@H]2OC`, for which the IC50 is 11 nM in data set [1]; more than 100000 nM in data set [2]; 1740 nM in data set [3]; more than 10000 nM in [4]; more than 100000 nM in [6]. The inhibition entry in data set [5] is “inactive”. The result in [7] was inactive. For the same compound, the Activity is 68% in data set [8], 79.8% in data set [9] and “Non-Toxic” in data set [10].
Turning to `CO[C@H]1C[C@@H](C)C/C(C)=C/[C@@H](CCCC(=O)N2CC(N3CCOCC3)C2)C(=O)C[C@H](O)[C@@H](C)[C@@H](/C(C)=C/[C@@H]2CC[C@@H](O)[C@H](OC)C2)OC(=O)[C@@H]2CCCCN2C(=O)C(=O)[C@]2(O)O[C@H]1[C@@H](OC)C[C@H]2C`, the IC50 in [1] was 9.52 nM; in data set [2], more than 100000 nM; in data set [3], 1080 nM; in [4], more than 10000 nM; in data set [17] it was 12.8 nM; in data set [6] it was more than 100000 nM. For the same compound, the inhibition entry in [5] was “inactive”. In data set [7], the outcome was inactive. Besides, the Activity in [8] is recorded as 49.6%; in data set [9], 49.3%; in data set [10], “Non-Toxic”.
